Test results as given in patent US12195430B1, “6-(4,5-bis(4-bromophenyl)-2-(4-methoxyphenyl)-1H-imidazol-1-yl)hexanoic acid as an antimicrobial compound” (KING FAISAL UNIVERSITY, priority 2023, dated 2025).

Assays:
Type in all cases: cell-based
[1] = tested on: Pseudomonas aeruginosa; assay: Agar plate disc-diffusion, antibacterial inhibition zone; conditions: nutrient agar, 37° C., 48 h
Protocol: (§1) The agar plate disc-diffusion method was applied. […] The discs were then placed onto the surface of agar plates (nutrient agar for bacteria and Sabouraud's dextrose agar for fungi) seeded with the test organism. Each plate contained 15 mL of the agar medium, previously seeded with 0.2 mL of the broth culture of each organism pregrown for 18 h. The plates were incubated at 37° C. for 48 h, and 72 h for fungi. The inhibition zones was measured in mm. Discs impregnated with DMSO were used as a control, and its inhibition zone was subtracted from the tested compound actual inhibition zone.

[2] = tested on: Bacillus cereus; assay: as above; conditions: nutrient agar, 37° C., 48 h
Protocol: as §1

[3] = tested on: Staphylococcus aureus; assay: as above; conditions: nutrient agar, 37° C., 48 h
Protocol: as §1

[4] = tested on: Escherichia coli; assay: as above; conditions: nutrient agar, 37° C., 48 h
Protocol: as §1

[5] = tested on: Aspergillus flavus; assay: Agar plate disc-diffusion, antifungal inhibition zone; conditions: Sabouraud's dextrose agar, 72 h
Protocol: as §1

[6] = tested on: Chrysosporium keratinophilum; assay: as above; conditions: Sabouraud's dextrose agar, 72 h
Protocol: as §1

[7] = A = concentration of comp. = 10,000 μL
[8] = B = concentration of comp. = 30,000 μL
[9] = C = concentration of comp. = 50,000 μL

Compound	inhibition zone, Pseudomonas aeruginosa [1, 7]	inhibition zone, Pseudomonas aeruginosa [1, 8]	inhibition zone, Pseudomonas aeruginosa [1, 9]	inhibition zone, Bacillus Cereus [2, 7]	inhibition zone, Bacillus Cereus [2, 8]	inhibition zone, Bacillus Cereus [2, 9]	inhibition zone, Staphylococcus aureus [3, 7]	inhibition zone, Staphylococcus aureus [3, 8]	inhibition zone, Staphylococcus aureus [3, 9]	inhibition zone, Escherichia coli [4, 7]	inhibition zone, Escherichia coli [4, 8]	inhibition zone, Escherichia coli [4, 9]	inhibition zone, Aspergillus flavus [5, 7]	inhibition zone, Aspergillus flavus [5, 8]	inhibition zone, Aspergillus flavus [5, 9]	inhibition zone, Chrysosporium keratinophilum [6, 7]	inhibition zone, Chrysosporium keratinophilum [6, 8]	inhibition zone, Chrysosporium keratinophilum [6, 9]
COc1ccc(-c2nc(-c3ccc(Br)cc3)c(-c3ccc(Br)cc3)n2CCCCCC(=O)O)cc1 [V, 6-(4,5-bis(4-bromophenyl)-2-(4-methoxyphenyl)-1H-imidazol-1-yl)hexanoic acid]	26 mm	28 mm	40 mm	18 mm	20 mm	35 mm	21 mm	28 mm	38 mm	27 mm	35 mm	49 mm	25 mm	28 mm	35 mm	25 mm	27 mm	47 mm
O=C(O)c1cn(C2CC2)c2cc(N3CCNCC3)c(F)cc2c1=O [Cip., reference compound]	–	–	–	–	31 mm	–	–	–	–	–	–	–	28 mm	31 mm	43 mm	–	33 mm	55 mm
